Test results as given in patent publication US11969433B2, “Compositions and methods for muscle regeneration using prostaglandin E2” (The Board of Trustees of the Leland Stanford Junior …, priority 2016, dated 2024).

Columns and labels:
[1] = system: MuSCs; assay: EdU incorporation proliferation assay; type: cell-based, mouse; conditions: young MuSCs, PGE2 10 ng/ml
Experimental: (§1) To assay proliferation, we used three different assays (hemocytometer, VisionBlue, and EdU). For each, we seeded MuSCs on flat hydrogels (hemocytometer and VisionBlue) or collagen-coated plates (EdU assay) at a density of 500 cells per cm^2 surface area. For hemocytometer cell number count, we collected cells at indicated timepoints by incubation with 0.5% trypsin in PBS for 5 min at 37° C. and quantified them using a hemocytometer at least 3 times. Additionally, we used the VisionBlue Quick Cell Viability Fluorometric Assay Kit (BioVision, catalog #K303) as a readout for cell growth in culture. Briefly, we incubated MuSCs with 10% VisionBlue in culture medium for 3 h, and measured fluorescence intensity on a fluorescence plate reader (Infinite M1000 PRO, Tecan) at Ex=530-570 nm, Em=590-620 nm. We assayed proliferation using the Click-iT EdU Alexa Fluor 555 Imaging kit (Life Technologies). Briefly, we incubated live cells with EdU (20 μM) for 1 hr prior to fixation, and stained nuclei according to the manufacturer's guidelines together with anti-MYOGENIN (Santa Cruz, catalog #sc576, 1:250) to assay differentiation. […] We quantified EdU positive cells using the MetaMorph Image Analysis software (Molecular Devices). Data analyses were blinded, where researchers performing cell scoring were unaware of the treatment condition given to sample groups analyzed.

[2] = system: MuSCs; assay: VisionBlue metabolic viability assay; type: cell-based, mouse; conditions: PGE2 1-200 ng/ml
Experimental: as §1

[3] = system: MuSCs; assay: cAMP activity assay (cAMP-Glo); type: cell-based, mouse; conditions: 1 hr PGE2 10 ng/ml
Experimental: MuSCs were treated with DMSO (vehicle) or PGE2 (10 ng/ml) for 1 h and cyclic AMP levels measured according to the cAMP-Glo Assay protocol optimized by the manufacturer (Promega). Each sample was assayed in triplicate and in two independent experiments.

[4] = system: aged MuSCs; assay: Clonal aged MuSC proliferation and death by time-lapse microscopy in hydrogel microwells; type: cell-based, mouse
Excerpt: We assayed clonal muscle stem cell proliferation by time-lapse microscopy as previously described^5,6. Briefly, we treated isolated aged MuSCs with PGE2 (Cayman Chemical) or vehicle (DMSO) for 24 hr. After five days of growth on hydrogels, cells were reseeded at a density of 500 cells per cm^2 surface area in hydrogel microwells with 600 μm diameter. For time-lapse microscopy we monitored cell proliferation for those wells with single cells beginning 12 hr (day 0) to two days after seeding and recorded images every 3 min at 10× magnification using a PALM/AxioObserver Z1 system (Carl Zeiss MicroImaging) with a custom environmental control chamber and motorized stage. We changed medium every other day in between the acquisition time intervals. We analyzed time-lapse image sequences using the Baxter Algorithms for Cell Tracking and Lineage Reconstruction to identify and track single cells and generate lineage trees^5,6,8-10.
Viable and dead cells were distinguished in time-lapse sequences based on phase-contrast boundary and motility maintenance or loss, respectively. […] The values were estimated using the equations described in^6, and found in Table 1. We denote the proliferation rates in the two intervals p24 and p48 and the corresponding death rates d24 and d48. […] The modeled cell counts in the two time intervals are given by […]

[5] = system: MuSCs; assay: MuSC transplantation into injured TA muscle, engraftment by bioluminescence imaging; type: in vivo, mouse; conditions: cultured MuSCs, acute 1-day PGE2, 250 cells transplanted day 7 into NOD-SCID mice
[6] = system: gastrocnemius muscles; assay: Specific twitch force after treadmill run to exhaustion, aged mice (Example 2); type: in vivo, mouse; conditions: aged mice 18 months, 3 nM PGE2 after each of 10 daily runs, 4 weeks after last run
Experimental: The aged mice (18 months old) were subject to treadmill run to exhaustion daily for 10 days. The treadmill run was performed using the Exer3/6 (Columbus Instruments). Mice ran on the treadmill at 20 degrees downhill, starting at a speed of 10 meters/min. After 3 min, the speed was increased 1 meter/min to a final speed of 20 meters/min. Exhaustion was defined as the inability of the animal to remain on the treadmill despite electrical prodding. 2 h after each treadmill run, both gastrocnemius muscles of each mouse were injected with either PBS (control group) or 3 nM PGE2 (experimental group). The force measurement was performed 4 weeks after the last treadmill run using a […]-LR force transducer (Aurora Scientific) with a single 0.1 ms pulse at predetermined supramaximal stimulation intensity. The muscle force and synchronization pulses were recorded via a PCI-6251 acquisition card (National Instruments) and analyzed using Matlab. FIGS. 4O-4P show the specific muscle force values that were calculated by normalizing the force measurements with the muscle physiological cross-sectional area. […] Five repetitive measurements were made from each muscle. N=4 for the control group and n=5 for the PGE2 injected group. ** represents a statistical significant value of p<0.005 by 2-tailed Mann Whitney test.

[7] = aged MuSCs, 1 day PGE2, 48 h tracking
[8] = first 24 hour interval, aged MuSC clones
[9] = second 24 hour interval, aged MuSC clones

For CCCCC[C@H](O)/C=C/[C@H]1[C@H](O)CC(=O)[C@@H]1C/C=C\CCCC(=O)O [PGE2, prostaglandin E2], the “cell division assayed by EDU incorporation” value [1] was “increased”, the “proliferation measured by VisionBlue” value [2] was “Increase” and the “intracellular cAMP” value [3] was “elevated”. For the same compound, the “percent increase in dead cell count” value ([4]; aged MuSC clones, acute PGE2) was 0.1%, the “percent increase in live cell count” value ([4]; aged MuSC clones, acute PGE2, n=45 clones) was 5.4% and the cell death [4, 7] was “profound reduction”. The “cumulative cell numbers per clone” value [4, 7] was “remarkable increase”, the “Estimated death rate d24” value [4, 8] was 0.0067 per hours and the “Estimated proliferation rate p24” value [4, 8] was 0.0475 per hours. The “Estimated death rate d48” value [4, 9] was 0.0012 per hours, the “Estimated proliferation rate p48” value [4, 9] was 0.0538 per hours and the “young MuSC regenerative capacity assessed by BLI” value [5] was “enhanced by an order of magnitude”. The “specific twitch force of gastrocnemius muscles” value [6] was “increase”.
